Reference: BigSolDB 2.1

O=C1CCC(=O)CC1
solubility (mole fraction)
Details | in acetone | in acetonitrile | in cyclohexane | in ethanol | in ethyl acetate | in isopropanol | in methanol | in methyl acetate | in n-butanol | in n-propanol
278.15 K | 0.177 | 0.241 | – | 0.0215 | 0.093 | 0.018 | 0.112 | 0.156 | 0.0113 | 0.0096
283.15 K | 0.21 | 0.273 | 0.000676 | 0.0301 | 0.117 | 0.0274 | 0.141 | 0.188 | 0.0181 | 0.0162
288.15 K | 0.248 | 0.311 | 0.000868 | 0.0479 | 0.146 | 0.0414 | 0.174 | 0.227 | 0.0293 | 0.0253
293.15 K | 0.29 | 0.35 | 0.00111 | 0.0777 | 0.179 | 0.0681 | 0.221 | 0.27 | 0.0436 | 0.0409
298.15 K | 0.338 | 0.391 | 0.00141 | 0.121 | 0.223 | 0.107 | 0.266 | 0.321 | 0.0654 | 0.0638
303.15 K | 0.391 | 0.434 | 0.00182 | 0.183 | 0.271 | 0.165 | 0.324 | 0.377 | 0.0954 | 0.0996
308.15 K | 0.454 | 0.481 | 0.00234 | 0.265 | 0.332 | 0.254 | 0.393 | 0.441 | 0.145 | 0.157
313.15 K | 0.52 | 0.533 | 0.00293 | 0.375 | 0.404 | 0.36 | 0.461 | 0.515 | 0.222 | 0.24
